Assay results: patent US20260028365A1 (BIOGEN MA INC., priority 2022, published 2026)
Read-outs that look alike come from different tables or passages of the source.

Experiments:
[1] = target: JH2 domain of human Tyk2 (Homo sapiens (Human), UniProt P29597); assay: JH2 Biochemical Assay (TR-FRET probe displacement); type: binding
[2] = target: Tyk2 (Homo sapiens (Human), UniProt P29597); assay: pSTAT4 Cell Assay (MSD, NK92 cells); type: cell-based
[3] = TR-FRET probe displacement, JH2 domain
[4] = JH2 domain of human Tyk2, TR-FRET probe displacement
[5] = TR-FRET probe displacement, JH2 domain of human Tyk2

Chain of JH2 domain of human Tyk2 (P29597 575-876): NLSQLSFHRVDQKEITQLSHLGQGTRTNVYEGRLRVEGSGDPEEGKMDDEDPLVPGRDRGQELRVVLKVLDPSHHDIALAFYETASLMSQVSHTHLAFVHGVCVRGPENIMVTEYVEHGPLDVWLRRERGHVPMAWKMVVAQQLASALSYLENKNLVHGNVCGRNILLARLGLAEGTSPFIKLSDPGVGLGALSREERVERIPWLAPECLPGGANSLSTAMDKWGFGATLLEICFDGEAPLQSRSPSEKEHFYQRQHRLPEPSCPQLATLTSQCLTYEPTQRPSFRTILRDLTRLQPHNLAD
Chain of Tyk2 (P29597 whole entry, the tested form may be a part): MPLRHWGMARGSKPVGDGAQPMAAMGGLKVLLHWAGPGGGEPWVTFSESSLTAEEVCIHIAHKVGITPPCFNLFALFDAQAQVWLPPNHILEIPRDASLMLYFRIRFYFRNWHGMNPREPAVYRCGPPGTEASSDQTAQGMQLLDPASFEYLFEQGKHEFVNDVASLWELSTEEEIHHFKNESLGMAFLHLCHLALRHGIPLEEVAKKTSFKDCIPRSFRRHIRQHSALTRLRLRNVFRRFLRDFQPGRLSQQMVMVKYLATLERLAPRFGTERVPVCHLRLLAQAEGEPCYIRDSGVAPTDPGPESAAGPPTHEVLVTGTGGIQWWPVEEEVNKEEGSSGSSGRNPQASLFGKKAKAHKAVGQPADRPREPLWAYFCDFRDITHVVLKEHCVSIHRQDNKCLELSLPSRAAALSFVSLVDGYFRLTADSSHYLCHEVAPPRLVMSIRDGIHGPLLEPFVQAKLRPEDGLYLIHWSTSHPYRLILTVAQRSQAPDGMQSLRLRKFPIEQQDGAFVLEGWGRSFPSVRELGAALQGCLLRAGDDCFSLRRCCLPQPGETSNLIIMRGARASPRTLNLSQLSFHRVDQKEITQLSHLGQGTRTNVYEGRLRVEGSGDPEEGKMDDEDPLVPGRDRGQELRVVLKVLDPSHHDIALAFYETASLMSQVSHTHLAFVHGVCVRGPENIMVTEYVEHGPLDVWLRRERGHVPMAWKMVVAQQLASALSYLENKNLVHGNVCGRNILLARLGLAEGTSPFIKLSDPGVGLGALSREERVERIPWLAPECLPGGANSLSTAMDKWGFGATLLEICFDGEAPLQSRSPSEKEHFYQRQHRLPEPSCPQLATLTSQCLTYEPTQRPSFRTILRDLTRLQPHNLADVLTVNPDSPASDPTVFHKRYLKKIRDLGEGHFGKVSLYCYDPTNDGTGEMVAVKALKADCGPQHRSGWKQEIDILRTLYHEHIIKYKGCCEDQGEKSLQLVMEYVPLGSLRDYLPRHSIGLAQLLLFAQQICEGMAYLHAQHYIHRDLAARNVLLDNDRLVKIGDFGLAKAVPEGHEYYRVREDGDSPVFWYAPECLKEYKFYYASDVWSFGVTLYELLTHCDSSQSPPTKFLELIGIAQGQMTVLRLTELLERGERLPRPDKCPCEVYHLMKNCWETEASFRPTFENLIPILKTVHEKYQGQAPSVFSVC

SMILES	IC50 [1, 3] [nM]	IC50 [2] [nM]	IC50 [1, 4] [nM]	IC50 ([2]; MSD) [nM]	IC50 [1, 5] [nM]
CC(=O)Nc1cc(Nc2cc(-c3cnn(C(C)C)c3)nc(C(C)(F)F)n2)c(F)cn1 [Example 819, N-(4-((2-(1,1-difluoroethyl)-6-(1-isopropyl-1H-pyrazol-4-yl)pyrimidin-4-yl)amino)-5-fluoropyridin-2-yl)acetamide]	10 to 100	≥ 1000			
CC(=O)Nc1cc(Nc2cc(-c3cnn(C(C)C)c3)nc(C(C)(F)F)n2)c(O[C@H]2C[C@@H](F)C2)cn1 [Example 414, N-(4-((2-(1,1-difluoroethyl)-6-(1-isopropyl-1H-pyrazol-4-yl)pyrimidin-4-yl)amino)-5-((1s,3s)-3-fluorocyclobutoxy)pyridin-2-yl)acetamide]			≤ 10	≤ 10	
COc1ccc(-c2cnc(NC(C)=O)cc2Nc2cc(OC3CC3)nc(C(C)(F)F)n2)nn1 [Example 833, N-(4-((6-cyclopropoxy-2-(1,1-difluoroethyl)pyrimidin-4-yl)amino)-5-(6-methoxypyridazin-3-yl)pyridin-2-yl)acetamide]	≤ 10	≤ 10			
CCc1cc(Nc2cc(NC(C)=O)ncc2-c2ccc(COC)cn2)nc(C2CCOC2)n1 (stereo not drawn) [Example 569, N-(4′-((6-ethyl-2-(tetrahydrofuran-3-yl)pyrimidin-4-yl)amino)-5-(methoxymethyl)-[2,3′-bipyridin]-6′-yl)acetamide]			≤ 10	≤ 10	
CC(=O)Nc1cc(Nc2cc(C)nc(C(C)(F)F)n2)c(OCc2cnc(C3CC3)o2)cn1 [Example 344, N-(5-((2-cyclopropyloxazol-5-yl)methoxy)-4-((2-(1,1-difluoroethyl)-6-methylpyrimidin-4-yl)amino)pyridin-2-yl)acetamide]				10 to 100	≤ 10
CC(=O)Nc1cc(Nc2ccnc(C(C)(F)F)n2)c(-c2ccc(CN3CCC4(COC4)C3)cn2)cn1 [Example 703, N-(5-((2-oxa-6-azaspiro[3.4]octan-6-yl)methyl)-4′-((2-(1,1-difluoroethyl)pyrimidin-4-yl)amino)-[2,3′-bipyridin]-6′-yl)acetamide]			≤ 10	≤ 10	
COc1nccc(-c2cnc(NC(C)=O)cc2Nc2cccc(C(C)(F)F)n2)n1 [Example 177, N-(4-((6-(1,1-difluoroethyl)pyridin-2-yl)amino)-5-(2-methoxypyrimidin-4-yl)pyridin-2-yl)acetamide]				≤ 10	≤ 10
COC(C)(C)Cn1ccc(-c2cnc(NC(C)=O)cc2Nc2cc(C)nc(C(C)(F)F)n2)n1 [Example 230, N-(4-((2-(1,1-difluoroethyl)-6-methylpyrimidin-4-yl)amino)-5-(1-(2-methoxy-2-methylpropyl)-1H-pyrazol-3-yl)pyridin-2-yl)acetamide]				≤ 10	≤ 10
COCCOc1ccnc(-c2cnc(NC(C)=O)cc2Nc2cc(C)nc(C(C)(F)F)n2)n1 [Example 777, N-(4-((2-(1,1-difluoroethyl)-6-methylpyrimidin-4-yl)amino)-5-(4-(2-methoxyethoxy)pyrimidin-2-yl)pyridin-2-yl)acetamide]	10 to 100	≥ 1000			
CCOc1cnc(NC(C)=O)cc1Nc1nc(C(C)(F)F)ncc1F [Example 34, N-(4-((2-(1,1-difluoroethyl)-5-fluoropyrimidin-4-yl)amino)-5-ethoxypyridin-2-yl)acetamide]				≥ 1000	10 to 100
CC(=O)Nc1cc(Nc2cc(C)nc(C(C)(F)F)n2)c(OCc2cccc(F)c2)cn1 [Example 466, N-(4-((2-(1,1-difluoroethyl)-6-methylpyrimidin-4-yl)amino)-5-((3-fluorobenzyl)oxy)pyridin-2-yl)acetamide]			≤ 10	10 to 100	
CCc1cc(Nc2cc(NC(C)=O)ncc2-c2ccc(F)cn2)nc(C(C)(F)F)n1 [Example 582, N-(4′-((2-(1,1-difluoroethyl)-6-ethylpyrimidin-4-yl)amino)-5-fluorO[2,3′-bipyridin]-6′-yl)acetamide]			≤ 10	≤ 10	
